Experimental data taken from patent publication US8492614B2, “Plant biochemical systems and uses thereof” (The Board of Trustees of the University of Illinois, priority 2007, dated 2013).
Entries after “also recorded” stand apart in the source; their conditions may differ.

How the values were obtained:
[1] = target: T1, prephenate dehydratase (PD1) (Arabidopsis thaliana, UniProt Q9ZUY3); assay: Prephenate dehydratase activity in Arabidopsis cell free extracts; format: biochemical; settings: pre-incubation in various concentrations
T1 construct: from tissue; host or cells: aerial portions of etiolated (dark-grown) wild-type Col Arabidopsis seedlings; crude cell-free / cytosolic extract
T1 sequence (Q9ZUY3 25-424): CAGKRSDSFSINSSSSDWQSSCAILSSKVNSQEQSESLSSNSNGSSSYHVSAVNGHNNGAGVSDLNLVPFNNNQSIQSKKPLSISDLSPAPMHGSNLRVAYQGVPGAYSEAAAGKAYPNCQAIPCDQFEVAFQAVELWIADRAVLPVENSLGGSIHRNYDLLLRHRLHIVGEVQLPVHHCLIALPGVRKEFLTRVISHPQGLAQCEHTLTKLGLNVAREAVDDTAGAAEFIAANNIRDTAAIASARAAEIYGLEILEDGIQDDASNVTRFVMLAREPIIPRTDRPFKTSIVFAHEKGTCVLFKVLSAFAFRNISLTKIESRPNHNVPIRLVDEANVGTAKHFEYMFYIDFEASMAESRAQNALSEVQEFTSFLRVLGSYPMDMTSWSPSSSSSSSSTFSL
Experimental: 143:1590-1600). […] Absorbance and stability characteristics are tested at different pH concentrations between 6.8-8.0. Absorbance and stability characteristics are tested at different temperatures and durations of storage on the pigments and phenylalanine characteristics in solution for Arabidopsis and this is done for all crop plant types tested. The aerial portions of six-day-old dark grown Arabidopsis seedlings were harvested into potassium phosphate buffer (pH 7.5; 50 mM), DTT (1 mM), and plant protease cocktail (Sigma), and homogenized for 60 sec at a setting of #6 in a Polytron. Cell debris was removed by centrifugation. All steps were carried out at 4° C. All plants types would be harvested by this method between 6-8 days after planting in darkness. […] Production of phenylpyruvate was determined spectrophotometrically. […] See […] et al., Plant Physiol. 140:844-855.

[2] = system: etiolated Arabidopsis seedlings; assay: Cotyledon natural fluorescence by deconvoluting microscopy; format: in vivo; settings: 1.0 mM Phe in medium; salt stress; mutant seedlings; listed as Phe
Experimental: Fluorescent images were obtained of living unfixed seedlings 24 h post BL or ABA treatment as described in the “Plant Growth and Preparation of Tissue” section. Optical sectioning was achieved by using a Zeiss Axiovert 200M microscope (Carl Zeiss), equipped with ApoTome (collected by grid projection), and a digital camera and the 4#,6-diamino-phenylindole, fluorescein isothiocyanate, and Texas Red filter sets (Chroma). Photographs of whole cotyledon fluorescence were snapped on the same microscope set up, minus the apoTome setting.
The preparation of whole cell extracts from the areal portions of the seedlings for the quantification of Phe levels and PD1 activity levels is described in (Warpeha et al., Plant Physiol. 143:1590-1600, 2007). Phe concentration is determined by HPLC. […] Natural fluorescence of the cotyledons is visualized and quantitated by deconvoluting microscopy using a “DAPI-Long Pass” filter which allows excitation between 300-380 nm and emits with a cutoff […] 400 nm.
If the Phe produced by activated PD1 is necessary for the ability of young etiolated seedlings to respond to UV-B, salt or heat stress, then it is possible that the addition of exogenous Phe (effectively cross feeding Phe) could restore a wild type response to GCR1, GPA1 and PD1 mutants when assayed for cotyledon fluorescence and the ability to survive sub-lethal levels of UV-C. To determine if exogenous Phe can restore wild type responses to GCR1, GPA, and PD1 mutants, 1 mM Phe is added to the top agar during planting and the experiment described above specifically testing for cotyledon surface fluorescence and the ability to survive sub-lethal levels of UV-C is repeated. Serine and […] are used as negative controls in these assays.
The experiments described above for examining if GCR1, GPA1 and PD1 are required for young etiolated seedlings to respond to UV-B, salt or heat stress are performed but with ABA, ACC, JA and SA substituting for UV-B, salt and heat. For these experiments, ABA is tested at 1.0 μM dissolved in ethanol and applied as an atomized mist. […]

[3] = Stability of absorbance spectra of cell free extracts with or without phenylalanine; format: physicochemical, Arabidopsis; settings: for stability of the extract solution (absorbance spectra, pigments) over time: cell free extracts in buffer, 24 h, room temperature or +4° C., lab lighting
Experimental: Cell free extracts were left at room temperature for 24 h after a 10^5 μmol m^−2 treatment of UV (366 nm) in lab lighting (which is fluorescent).

effect of pre-incubation on the reaction producing phenylalanine [1]: inhibited | stability of the extract solution (absorbance spectra, pigments) over time ([3]; listed as Phenylalanine): remained stable | deviation from initial 24 h post absorbance spectra ([3]; extracts with phenylalanine added, UV (366 nm) treated, stored at +4° C. for 4 days): less than 10%
SMILES: N[C@@H](Cc1ccccc1)C(=O)O [phenylalanine]
restoration of cotyledon surface fluorescence in mutants [2]: can restore the responses in the mutants to those observed for wild type seedlings; also recorded: can restore wild type responses to AGB1 and AGG1 mutants | stability of the extract solution (absorbance spectra, pigments) over time [3]: remain stable over time; also recorded: clear difference in stability in the solution when phenylalanine is added
